# Assays:
# [1] = target: EGFR tyrosine kinase (Homo sapiens, UniProt P00533); details: disclosed in WO 97/02266; cited from earlier work
# [2] = test system: NCI-H520; test: Real time RT-PCR gene expression in NCI-H520 cells; type: cell-based, human; details: NCI-H520, 3 μM, 24 h; relative to DMSO-treated NCI-H520 calibrator
# Description: 20 million tissue culture cells (about 80% confluent) or 200 million WBCs are incubated for 2 or 24 h in culture medium containing 3 μM of an EGFR tyrosine kinase inhibitor or 0.03% DMSO. Total RNA from cell pellet is isolated using the RNeasy kit (Qiagen). mRNA is isolated using the oligotex mRNA purification kit (Qiagen). The quality of the obtained mRNA is tested by real time RT-PCR using beta-Actin primers (PE Applied Biosystems) with an amplicon size of 300 base pairs (bp). The total RNA is used as a reference to calculate the amount of mRNA-enrichment in the oligotex purified samples. The primers and probes are designed from mRNA sequences within the coding region or in the 3′ untranslated region (Table 2). For real time RT-PCR, RNA concentrations between 1 and 50 ng/reaction are used to obtain signals between 15-35 cycles. For each RNA preparation RT-PCR reactions are performed with and without reverse transcriptase to check for genomic DNA contamination. In all RNA samples tested, genomic DNA contamination is less than 1%. To normalize for variability in the initial concentration and quality of the total RNA, Glyceraldehyde-3-phosphate dehydrogenase (GAPDH) is used as an endogenous reference in all quantification experiments. For RT-PCR a one step, two-enzyme system is chosen. The TaqMan PCR Core Reagent Kit (PE #N808-0228) plus the reverse transcriptase MuLV (PE Biosystems # N808-0018) and RNase inhibitor (Roche Diagnostics # 799 025) are mixed as described in the manufacturers protocol. Triplicate measurements are done for target and for reference reactions. […] RT-PCR reactions are done with RNA concentrations of 2.5, 5, 10, 20, 40 and 80 ng per reaction. […] The ΔCT value is determined by subtracting the average reference CT values from the average target CT values of the three measurements. Relative quantification is performed in triplicates, reference and target, using the RT-PCR protocol described above. […] Expression levels for the three genes, calculated relative to NCI-H520, show big differences between the various cell types (Table 5). […]
# [3] = test system: NCI-H520; test: Western blot of clusterin induction in NCI-H520 cells; type: cell-based, human; details: NCI-H520 cells (do not express EGFR), 300 nM, 24 h, vs 0.03% DMSO
# Description: (§1) An EGFR tyrosine kinase inhibitor is dissolved in DMSO to obtain a 10 mM stock solution. The stock solution is further diluted in culture medium to final concentrations of 10 nM to 3 μM. 3.5 million cells/100 mm dish/12 ml culture medium are incubated for 24 h in 5% CO2 at 37° C. The medium is replaced with medium containing the EGFR tyrosine kinase inhibitor or DMSO. Cells are incubated for 4 to 32 h. The frozen pellets are lysed in 500 μl of lysis buffer (50 mM Tris-HCl pH 7.5, 1% Sodium Dodecyl Sulfate (SDS)). To shear genomic DNA, the cell lysates are processed in a FastPrep instrument for 20 sec at a speed rating of 4, using the green […] tubes (Bio101#6040-6010). Protein concentrations are determined according to the PIERCE-method (BCA Protein Assay, Reagent A and B). Protein concentration of lysates is adjusted to 1 μg/μl with lysis buffer. 4 parts of cell lysates are mixed with 1 part of 5 fold concentrated Laemmli buffer, the lysates are stored at -20° C. 40 μl of cell lysate is heated for 3 min to 95° C. and directly loaded on to 10% or 15% SDS-PAGE gels. The gels are run at 130 V for 90 min under standard conditions. The separated proteins are semi-dry blotted on to a PVDF membrane (Immobilon-P, Millipore #IPVH 202 00) for 70 min with 45 mA per blot. […]
# [4] = test system: MDA-MB468; test: Western blot of clusterin induction in MDA-MB468 cells; type: cell-based, human; details: MDA-MB468 cells (high levels of EGFR), 300 nM, 24 h, vs 0.03% DMSO
# Description: as §1
# Sequence of EGFR tyrosine kinase (P00533 669-1210 limits assumed): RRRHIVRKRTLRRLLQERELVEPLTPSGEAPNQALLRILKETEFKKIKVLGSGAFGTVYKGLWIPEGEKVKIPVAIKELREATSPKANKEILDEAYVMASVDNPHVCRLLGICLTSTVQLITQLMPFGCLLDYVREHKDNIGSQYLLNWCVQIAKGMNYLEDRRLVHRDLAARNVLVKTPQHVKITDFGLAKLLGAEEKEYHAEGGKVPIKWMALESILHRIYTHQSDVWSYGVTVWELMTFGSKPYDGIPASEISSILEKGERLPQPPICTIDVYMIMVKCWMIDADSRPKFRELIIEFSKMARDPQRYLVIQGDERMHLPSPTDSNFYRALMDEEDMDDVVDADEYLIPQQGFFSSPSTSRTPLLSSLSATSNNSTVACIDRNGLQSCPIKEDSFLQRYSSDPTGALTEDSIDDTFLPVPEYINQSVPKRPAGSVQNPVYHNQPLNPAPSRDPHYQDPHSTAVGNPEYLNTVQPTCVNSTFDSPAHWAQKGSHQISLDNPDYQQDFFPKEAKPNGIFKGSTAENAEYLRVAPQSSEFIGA
compound,measurement,setting,value
"C[C@@H](Nc1ncnc2[nH]c(-c3ccc(O)cc3)cc12)c1ccccc1 [COMPOUND A, (R)-6-(4-hydroxy-phenyl)-4-[(1-phenyl-ethyl)-amino]-7H-pyrrolo[2,3-d]pyrimidine]",Inhibition of the EGFR tyrosine kinase,[1],potent and selective inhibitor
same,Relative Clusterin expression,[2],0.61 n-fold
same,Relative TRAIL expression,[2],0.39 n-fold
same,Relative VAC-beta expression,[2],0.75 n-fold
same,"Clusterin induction, Western blot (FIG. 4)",[3],no detectable clusterin levels
same,"Clusterin induction, Western blot (FIG. 4)",[4],strong clusterin expression signals
